Broadly, the Ki is the dissociation constant of the complex between target and ligand, obtained from inhibition or displacement.

Drawing on patent US5382670A, “Platelet activating factor antagonists” (priority 1993, dated 1995), this text covers Ki for 37 molecules.

Where a name gives a salt, the structure may show the parent alone. Read-outs that look alike come from different tables or passages of the source.

For this assay, the target named is PAF receptor (Oryctolagus cuniculus, UniProt G1TEI7). Briefly: PAF receptor binding assay: inhibition of specific [3H]C18-PAF binding to rabbit platelet membranes. Particulars: 0.6 nM [3H]C18-PAF, 60 min, 22-23 °C, Ki from IC50 (Cheng and Prusoff). The method, then: The ability of representative compounds of the present invention to inhibit PAF activity was determined in an in vitro test using the following method.
Citrated whole rabbit blood was obtained from Pel-Freez (Rogers, AR). Rabbit platelets were prepared by centrifugation and washing. The platelets were lysed by freeze-thawing and sonication; platelet membranes were prepared by centrifugation and washing. Final membrane preparations were stored frozen in 10 mM Tris/5 mM MgCl2 /2 mM EDTA (TME buffer, pH 7.0) with 0.25M sucrose added for membrane stabilization.
The standard PAF receptor binding assay contained 10 μg platelet membrane protein, 0.6 nM [^3 H]C18 -PAF (from Amersham or New England Nuclear; specific activity 120-180 Ci/mmol), with and without test compound, in "binding buffer" consisting of TME with 0.25% bovine serum albumin added (Sigma, RIA grade). The final volume of the assay was 100 μl. The assay was conducted in Millititre-GV™ (Millipore Corp.) filtration plates; incubation time was for 60 minutes at room temperature (22°-23° C.). "Specific binding" was operationally defined as the arithmetic difference between "total binding" of 0.6 nM [^3 H]C18 -PAF (in the abasence of added PAF) and "nonspecific binding" (in the presence of 1 μM PAF). After the prescribed incubation, platelet membranes were filtered under vacuum, and washed with 1 milliliter of "binding buffer". The filters were dried and removed. The bound radioactivity was quantitated with a Berthold TLC-Linear Analyzer model LB2842.
Dose-response curves of inhibition of specific [^3 H]C18 -PAF binding by test compounds were conducted in triplicate, with at least four doses covering the active range. Experiments were repeated at least once. IC50 values (concentration producing 50% inhibition) were determined by point-to-point evaluation. Ki values of inhibitory binding constants were calculated according to the method of Cheng and Prusoff [Biochem. Pharmacol. 22 (1973) 3099-3108] whereby [formula]
The values of Ki for representative compounds of the present invention appear in Table 1.

Where [1] appears, read: read-out: Ki (PAF Receptor Binding Activity).
The mark [2] stands for this setting: Ki (PAF Receptor Binding Activity).

Sequence of PAF receptor (G1TEI7 1-342): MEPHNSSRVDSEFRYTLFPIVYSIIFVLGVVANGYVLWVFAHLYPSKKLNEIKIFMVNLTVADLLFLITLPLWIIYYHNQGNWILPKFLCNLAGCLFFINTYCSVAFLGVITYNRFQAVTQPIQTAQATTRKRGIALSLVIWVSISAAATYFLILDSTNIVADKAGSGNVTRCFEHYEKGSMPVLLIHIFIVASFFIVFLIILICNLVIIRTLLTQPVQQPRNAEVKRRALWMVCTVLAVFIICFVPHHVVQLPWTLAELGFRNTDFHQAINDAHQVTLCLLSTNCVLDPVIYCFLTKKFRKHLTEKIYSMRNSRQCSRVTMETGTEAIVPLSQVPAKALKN

As to `CCS(=O)(=O)n1cc(C(=O)C2CSC(c3cccnc3)N2)c2ccc(OCc3ccccc3)cc21` (stereo not shown) [Example 73, 1-ethylsulfonyl-3-[2-(3-pyridinyl)thiazolid-4-oyl]-6-phenylmethoxyindole], under setting [1], the Ki came to 8 nM.
The same measure, in the same setting: to `O=C(c1c[nH]c2cc(OCc3ccc(F)cc3)ccc12)C1CSC(c2cccnc2)N1` (stereo not shown) [Example 74, 3-[2-(3-pyridinyl)thiazolid-4-oyl]-6-(4-fluorophenylmethoxy)indole] belongs 3 nM; to `CN(C)C(=O)n1cc(C(=O)C2CSC(c3cccnc3)N2)c2ccc(OCc3ccc(F)cc3)cc21` (stereo not shown) [Example 75, 1-dimethylcarbamoyl-3-[2-(3-pyridinyl)thiazolid-4-oyl]-6-(4-fluorophenylmethoxy)indole], 2 nM; to `O=C(c1c[nH]c2cc(OCc3cccnc3)ccc12)C1CSC(c2cccnc2)N1` (stereo not shown) [Example 76], 30 nM.
As for `O=C(c1c[nH]c2cc(C#Cc3ccccc3)ccc12)C1CSC(c2cccnc2)N1` (stereo not shown) [Example 77, 3-[2-(3-pyridinyl)thiazolid-4-oyl]-6-phenylethynylindole], under setting [1], the Ki turned out to be 9 nM.
Consider `CN(C)C(=O)n1cc(C(=O)C2CSC(c3cccnc3)N2)c2ccc(C#Cc3ccccc3)cc21` (stereo not shown) [Example 78], for which the Ki under setting [1] is 2 nM.
As to `Cc1[nH]c2cc(OCc3ccccc3)ccc2c1C(=O)C1CSC(c2cccnc2)N1` (stereo not shown) [Example 79, 2-methyl-3-[2-(3-pyridinyl)thiazolid-4-oyl]-6-phenylmethoxyindole], under setting [1], the Ki came out at 16 nM.
`Cc1ccc2c(C(=O)C3CSC(c4cccnc4)N3)c[nH]c2c1` (stereo not shown) [Example 80, 3-[2-(3-pyridinyl)thiazolid-4-oyl]-6-methylindole] had a Ki under setting [2] of 3 nM.
On to `Cc1ccc2c(C(=O)C3CSC(c4cccnc4)N3)cn(C(=O)OC(C)(C)C)c2c1` (stereo not shown) [Example 81, 1-tert-butoxycarbonyl-3-[2-(3-pyridinyl)thiazolid-4-oyl]-6-methylindole oxalate], for which the Ki under setting [1] stood at 2 nM.
`COc1ccc2c(C(=O)C3CSC(c4cccnc4)N3)c[nH]c2c1` (stereo not shown) [Example 82, 3-[2-(3-pyridinyl)thiazolid-4-oyl]-6-methoxyindole]: the Ki under setting [2] was 9 nM.
On the same count and under the same terms, to `COc1ccc2c(C(=O)C3CSC(c4cccnc4)N3)c[nH]c2c1` (stereo not shown) [Example 83, 3-[2-(3-pyridinyl)thiazolid-4-oyl]-6-methoxyindole oxalate] belongs 16 nM.
For `COc1ccc2c(C(=O)C3CSC(c4cccnc4)N3)cn(C(=O)OC(C)(C)C)c2c1` (stereo not shown) [Example 84, 1-tert-butoxycarbonyl-3-[2-(3-pyridinyl)thiazolid-4-oyl]-6-methoxyindole oxalate], the Ki under setting [1] came out at 9 nM.
Regarding `COc1ccc2c(C(=O)C3CSC(c4cccnc4)N3)cn(C(=O)N(C)C)c2c1` (stereo not shown) [Example 85, 1-dimethylcarbamoyl-3-[2-(3-pyridinyl)thiazolid-4-oyl]-6-methoxyindole], the Ki under setting [1] is 4 nM.
Consider `O=C(c1c[nH]c2cc(-c3ccccc3)ccc12)C1CSC(c2cccnc2)N1` (stereo not shown) [Example 86, 3-[2-(3-pyridinyl)-thiazolid-4-oyl]-6-phenylindole], for which the Ki under setting [1] came out at 15 nM.
On the same count and under the same terms, to `CN(C)C(=O)n1cc(C(=O)C2CSC(c3cccnc3)N2)c2ccc(-c3ccccc3)cc21` (stereo not shown) [Example 87, 1-dimethylcarbamoyl-3-[2-(3-pyridinyl)thiazolid-4-oyl]-6-phenylindole] belongs 4 nM.
`O=C(c1c[nH]c2cc(O)ccc12)C1CSC(c2cccnc2)N1` (stereo not shown) [Example 88, 3-[2-(3-pyridinyl)thiazolid-4-oyl]-6-hydroxyindole] gave a Ki under setting [2] of 150 nM.
As for `CN(C)C(=O)n1cc(C(=O)C2CSC(c3cccnc3)N2)c2ccc(Cl)cc21` (stereo not shown) [Example 89, 1-dimethylcarbamoyl-3-[2-(3-pyridinyl)thiazolid-4-oyl]-6-chloroindole], the Ki under setting [1] came to 1 nM.
For the molecule `O=CN1C(C(=O)c2c[nH]c3ccccc23)CSC1c1cccnc1` (stereo not shown) [Example 90, 3-[2-(3-pyridinyl)-3-formylthiazolid-4-oyl]indole], the Ki under setting [1] was 270 nM.
Still for that read-out and setting: to `CN(C)C(=O)n1cc(C(=O)C2CSC(c3cccnc3)N2C=O)c2ccccc21` (stereo not shown) [Example 91, 1-dimethylcarbamoyl-3-[2-(3-pyridinyl)-3-formylthiazolid-4-oyl]indole] belongs 37 nM; to `O=CN1C(C(=O)c2cn(C(=O)N3CCOCC3)c3ccccc23)CSC1c1cccnc1` (stereo not shown) [Example 92, 1-(4-morpholinocarbonyl)-3-[2-(3-pyridinyl)-3-formylthiazolid-4-oyl]indole], 150 nM; to `CN(C)C(=O)n1cc(C(=O)C2CSC(c3cccnc3)N2C=O)c2ccc(OCc3ccccc3)cc21` (stereo not shown) [Example 93, 1-dimethylcarbamoyl-3-[2-(3-pyridinyl)-3-formylthiazolid-4-oyl]-6-phenylmethoxyindole], 35 nM.
The same measure, in the same setting: to `Cc1ccc2c(C(=O)C3CSC(c4cccnc4)N3C=O)cn(C(=O)N(C)C)c2c1` (stereo not shown) [Example 94, 1-dimethylcarbamoyl-3-[2-(3-pyridinyl)-3-formylthiazolid-4-oyl]-6-methylindole] belongs 33 nM; to `CN(C)C(=O)n1cc(C(=O)C2C[S+]([O-])C(c3cccnc3)N2C=O)c2ccccc21` (stereo not shown) [Example 95, 1-dimethylcarbamoyl-3-[1-oxide,2-(3,pyridinyl)-3-formylthiazolid-4-oyl]indole], 3300 nM.
The same measure, in the same setting: to `CN(C)C(=O)n1cc(C(=O)[C@@H]2CSC(c3cccnc3)N2C=O)c2ccccc21` (stereo partly drawn) [Example 96, trans-1-dimethylcarbamoyl-3-[2-(3-pyridinyl)-3-formylthiazolid-4-oyl]indole] belongs 150 nM; to `CC(=O)N1C(C(=O)c2c[nH]c3ccccc23)CSC1c1cccnc1` (stereo not shown) [Example 98, 3-[2-(3-pyridinyl)-3-acetylthiazolid-4-oyl]indole], 18000 nM; to `CC(=O)N1C(C(=O)c2cn(C(=O)N(C)C)c3cc(OCc4ccccc4)ccc23)CSC1c1cccnc1` (stereo not shown) [Example 99, 1-dimethylcarbamoyl-3-[2-(3-pyridinyl)-3-acetylthiazolid-4-oyl]-6-phenylmethoxyindole], 5000 nM.
Turning to `CC(=O)N1C(C(=O)c2cn(C(=O)N(C)C)c3ccccc23)CSC1c1cccnc1` (stereo not shown) [Example 100, 1-dimethylcarbamoyl-3-[2-(3-pyridinyl)-3-acetylthiazolid-4-oyl]indole], under setting [1], the Ki worked out at 5200 nM.
With `CC(=O)N1C(C(=O)c2cn(C(=O)N(C)C)c3cc(OCc4ccccc4)ccc23)CSC1c1cccnc1` (stereo not shown) [Example 101, oxalate], the Ki under setting [1] was found to be 2200 nM.
Still for that read-out and setting: to `CN(C)C(=O)n1cc(C(=O)C2CSC(c3cccnc3)N2C(N)=O)c2ccccc21` (stereo not shown) [Example 110, 1-dimethylcarbamoyl-3-[2-(3-pyridinyl)-3-carbamoylthiazolid-4-oyl]indole] belongs 1400 nM.
Same read-out and setting: to `CN(C)C(=O)n1cc(C(=O)C2CSC(c3cccnc3)N2C(N)=O)c2ccc(OCc3ccccc3)cc21` (stereo not shown) [Example 111, 1-dimethylcarbamoyl-3-[2-(3-pyridinyl)-3-carbamoylthiazolid-4-oyl]-6-phenylmethoxyindole] belongs 700 nM.
Take `CN(C)C(=O)n1cc(C(=O)C2CSC(c3cccnc3)N2S(C)(=O)=O)c2ccccc21` (stereo not shown) [Example 112, 1-dimethylcarbamoyl-3-[2-(3-pyridinyl)-3-methylsulfonylthiazolid-4-oyl]indole]: under setting [1], the Ki was determined as 4800 nM.
The same measure, in the same setting: to `CN(C)C(=O)n1cc(C(=O)C2COC(c3cccnc3)N2C=O)c2ccccc21` (stereo not shown) [Example 113, 1-dimethylcarbamoyl-3-[2-(3-pyridinyl)-3,formyloxazolid-4-oyl]indole] belongs 1300 nM; to `CC(C)(C)OC(=O)n1cc(C(O)C2CSC(c3cccnc3)N2)c2ccccc21` (stereo not shown) [Example 114, [2-(3-pyridinyl)thiazolid-4-yl](1-tert-butoxycarbonylindol-3-yl)methanol], 43 nM.
Regarding `O=C(c1cc2ccccc2[nH]1)C1CSC(c2cccnc2)N1` (stereo not shown) [Example 115, 2-[2-(3-pyridinyl)thiazolid-4-oyl]indole], under setting [2], the affinity, expressed as Ki, was 155 nM.
`CN(C)C(=O)Cn1cc(C(=O)C2CSC(c3cccnc3)N2)c2ccccc21` (stereo not shown) [Example 116, 1-(N,N-dimethylcarbamoylmethyl)-3-[2-(3-pyridinyl)thiazolid-4-oyl]indole] displayed a Ki under setting [2] of 7 nM.
On to `CNC(=O)Cn1cc(C(=O)C2CSC(c3cccnc3)N2)c2ccccc21` (stereo not shown) [Example 117, 1-(N-methylcarbamoylmethyl)-3-[2-(3-pyridinyl)thiazolid-4-oyl]indole], for which affinity under setting [2] was put at a Ki of 3 nM.
Same read-out and setting: to `COC(=O)CCn1cc(C(=O)C2CSC(c3cccnc3)N2)c2ccccc21` (stereo not shown) [Example 118, 1-carbomethoxyethyl-3-[2-(3-pyridinyl)thiazolid-4-oyl]indole] belongs 5 nM.
